# Measured values as given in patent US20210106567A1, “COMPOSITIONS AND METHODS FOR INHIBITING CARP-1 BINDING TO NEMO” (United States Government As Represented By The Department …, priority 2019, published 2021).
# Assays:
# [1] = target: T1, Flag-CARP-1 (546-580) binding with Biotin-NEMO (221-261) (Homo sapiens, UniProt Q8IX12); experiment: AlphaLISA assay of CARP-1/NEMO peptide binding (HTS format); settings: biphasic, read-out: IC50, inhibition of binding of CARP-1 (546-580) with NEMO (221-261) peptide
# T1 construct: Flag-tagged CARP-1 (546-580); purchased Peptides America, Fairfax, Va; host or cells: chemical synthesis
# T1 sequence (Q8IX12 546-580 limits assumed): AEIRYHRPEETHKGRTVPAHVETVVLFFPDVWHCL
# Source text: The predicted kinetics of interaction of CARP-1 (551-600; SEQ ID NO: 5) and NEMO (221-261; SEQ ID NO: 2) epitopes was further validated by utilizing respective, chemically synthesized peptides to determine their in-solution binding by SPR technology (Sekhar et al. (2019) Cancers (Basel) 11). […] On the collective basis of the data in FIG. 1, and biophysical and SPR data above, in vitro binding assays were developed utilizing chemically synthesized CARP-1 and NEMO peptides. In the first instance, CARP-1 (551-580; SEQ ID NO: 6) and NEMO (221-261; SEQ ID NO: 2) peptides were used to carry out buffer optimization and DMSO tolerance of the assay. […] Presence of 0.01% tween minimizes non-specific binding and generates higher reproducibility as noted by smaller error bars in FIG. 15A. […]
# The AlphaLISA assay for high throughput screening: For screening of a library of chemical compounds, an […] assay was developed and optimized for use in 384-well format (SAMDI Tech, Chicago, Ill.). […] The assay signal (Fluorescence) was measured at 680 nm excitation and 615 nm emission wavelengths to determine assay robustness and DMSO tolerance. […] The plates were read on a Pherastar FS plate reader. […] Those wells were further analyzed to investigate the 8 compounds individually in duplicate.
# MTT cell viability = assay type: cell-based, murine; settings: mouse, 4T1 TNBC cells; 1.0, 2.5, 5.0, or 10.0 μM over 24 h; read-out: loss of viability
# Description: (§1) The murine TNBC cell line 4T1 that was derived from a spontaneously arising BALB/c mammary tumor were obtained from the Karmanos Cancer Institute (KCl), and were maintained in culture (Cheriyan et al. (2016) Oncotarget 7, 73370-73388). […] The cell culture media were also supplemented with 10% FBS, 100 units/ml of penicillin, and 100 μg/ml of streptomycin, and the cells were maintained at 37° C. and 5% CO2. For cell growth and MTT studies, the cells were cultured in fresh media with 5%-10% FBS prior to their treatments with various agents.
# (§2) Cell Viability, Immunoprecipitation and Western Blot assays: 500-1000 cells were seeded in each well of 96 well plate and then either untreated (control) or treated with various agents for noted times. After treatment, MTT reagent was added at 0.5 mg/ml concentration for 2-4 hours at 37° C. DMSO was added to solubilize formazan and the plate was read at 570 nm in a plate reader. The histograms indicating levels of cell viability were generated by plotting the net absorbances (Rishi et al. (2003) J Biol Chem 278, 33422-33435; and Rishi et al. (2006) J Biol Chem 281, 13188-13198).
# 4T1 TNBC cells = experiment: MTT cell viability; assay type: cell-based, murine; settings: Mus musculus, 72 h
# Description: as §1, §2
# 4T1 TNBC tumors = experiment: 4T1 TNBC syngeneic tumor efficacy study in Balb/c mice; assay type: in vivo, mouse
# Description: Establishment of TNBC cell-derived xenografts in Syngeneic mice: Generation of 4T1 TNBC cell-derived sub-cutaneous xenografts in Balb/c mice were performed (Cheriyan et al. (2016) Oncotarget 7, 73370-73388; and Cheriyan et al. (2017) Oncotarget 8, 104928-104945). BALB/cAnNCr, 6-8-weeks old, female mice were purchased from Charles River Laboratories (Horsham, Pa.). Following suitable acclimation of animals, 1×10^6 4T1 TNBC cells were re-suspended in 200 μl of sterile saline, and implanted in the flanks using a 27-gauge needle. Tumors were allowed to grow to 500-1000 mg (˜10 days), and the aseptically harvested, minced into 3-4 mm^3 (30 mg) fragments and transplanted SC into naïve recipient mice using a standard 12 gauge trocar to serially maintain the tumor in vivo. For efficacy studies, tumors serially maintained in vivo were aseptically harvested and minced into 3-4 mm^3 (30 mg) fragments, then bilaterally transplanted subcutaneously along the flanks using a standard 12 gauge trocar. […] For the efficacy studies, SNI-1 was formulated in 8% DMSO (v/v) and 8% Cremophor (v/v) in cell grade water, pH4 as diluent.
# Clinical grade ADR stock (2 mg/mL) was diluted to the appropriate concentration with cell grade water; pH4 and clinical grade CIS (1 mg/ml) diluted with USP 0.9% saline; pH6). Mice were monitored daily for changes in condition and body weight. Tumors were measured three times weekly by caliper and tumor volume (mg) was calculated using the following formula: (A×B2)/2 where A and B are the tumor length and width (in mm), respectively. […] Efficacy was also assessed quantitatively using tumor growth delay (T−C) defined as the difference between the median time (in days) required for the treatment group tumors (T) to reach 1000 mg and the median time (days) for the control group tumors to reach the same volume. Post last treatment, tumor tissue and samples from various organs (spleen, liver, kidney, heart, bone, and lungs) were collected. Additionally, the whole blood samples were obtained from a representative tumor-bearing mouse from each group via terminal cardiac puncture. Immuno-histochemical analyses of the tumor and tissue samples were performed for expression of activated RelA (serine 536 phosphorylated p65), total RelA, cleaved caspase-3, and CARP-1 proteins. The levels of pro-inflammatory cytokines in the sera were analyzed by sandwich ELISA assays following methods detailed herein (Cheriyan et al. (2016) Oncotarget 7, 73370-73388; and Cheriyan et al. (2017) Oncotarget 8, 104928-104945).
smiles,measurement,setting,value
"Cc1ccc(-n2nnnc2SCC(=O)c2ccc(O)c(O)c2)cc1 [SNI-1, 1-(3,4-dihydroxyphenyl)-2-{(1-(4-methylphenyl)-1H-tetrazol-5-yl)thio}ethanone]",IC50,[1],~0.3 µM
same,cytotoxicity at 24 h,MTT cell viability,10 to 20%
same,IC50,4T1 TNBC cells,4 to 4.5 µM
same,inhibition of tumor growth,4T1 TNBC tumors; 70 mg/kg/dose i.p. QD 1-13,absent to minimal inhibition of tumor growth
same,toxicities in the animals,4T1 TNBC tumors; 70 mg/kg/dose i.p. QD 1-13,did not provoke toxicities
same,activated caspase-3 in normal tissues (immuno-histochemistry),"4T1 TNBC tumors; mouse, in vivo",failed to show presence of activated caspase-3
same,"hematoxylin and eosin staining of lungs, spleen, heart, liver, kidneys, and bone marrow","4T1 TNBC tumors; mouse, in vivo",did not indicate microscopic alterations
same,cleaved caspase-3 in tumors (immuno-histochemistry),4T1 TNBC tumors; versus untreated control animal,strong presence of cleaved caspase-3
